# From patent US7893299B2, “Interleukin-1 and tumor necrosis factor-αmodulators; syntheses of such modulators and methods of using such modulators” (Nereus Pharmaceuticals, Inc., priority 2005, dated 2011)
# Where two headings read alike, the source gives them in different places.
# Tests used:
# PC3 (Prostate) = experiment: 48 hr cytotoxicity, PC-3; type: cell-based, human
# Description: B16-F10 (ATCC; CRL-6475), DU 145 (ATCC; HTB-81), HEK293 (ATCC; CRL-1573), HT-29 (ATCC; HTB-38), LoVo (ATCC; CCL-229), MDA-MB-231 (ATCC; HTB-26), MIA PaCa-2 (ATCC; CRL-1420), NCI-H292 (ATCC; CRL-1848), OVCAR-3 (ATCC, HTB-161), PANC-1 (ATCC; CRL-1469), PC-3 (ATCC; CRL-1435), RPMI 8226 (ATCC; CCL-155) and U266 (ATCC; TIB-196) are maintained in appropriate culture media. The cells are cultured in an incubator at 37° C. in 5% CO2 and 95% humidified air.
# For cell growth inhibition assays, B16-F10, DU 145, HEK293, HT-29, LoVo, MDA-MB-231, MIA PaCa-2, NCI-H292, OVCAR-3, PANC-1, PC-3, RPMI 8226 and U266 cells are seeded at 1.25×10^3, 5×10^3, 1.5×10^4, 5×10^3, 5×10^3, 1×10^4, 2×10^3, 4×10^3, 1×10^4, 7.5×10^3, 5×10^3, 2×10^4, 2.5×10^4 cells/well respectively in 90 μl complete media into Corning 3904 black-walled, clear-bottom tissue culture plates. 20 mM stock solutions of compounds of Formula II, IIA, and IIB are prepared in 100% DMSO, aliquoted and stored at −80° C. Compounds of Formula II, IIA, and IIB are serially diluted and added in triplicate to the test wells resulting in final concentrations ranging from of 20 μM to 0.2 pM. […]
# Following 48 hours of drug exposure, 10 μl of 0.2 mg/ml resazurin (obtained from Sigma-Aldrich Chemical Co.) in Mg^2+, Ca^2+ free phosphate buffered saline is added to each well and the plates are returned to the incubator for 3-6 hours. Since living cells metabolize Resazurin, the fluorescence of the reduction product of Resazurin is measured using a Fusion microplate fluorometer (Packard Bioscience) with λex=535 nm and λem=590 nm filters. […]
# The cytotoxicity assays were performed by seeding individual cell lines at appropriate density in the 96 well flat-bottomed plates and allowed to attach for 24 hours at 37° C., 5% CO2 and 95% humidified air (RPMI 8226 and U266 cells were plated in 96 well plates on the day of compound addition). […] Cell viability was assessed 48 hours later by measuring the fluorescence of the reduction product of Resazurin by a Fusion microplate fluorometer (PerkinElmer) with λex=535 nm and λem=590 nm filters. […]
# IKKα = IKKα (Mus musculus, UniProt Q60680); type: cell-based; settings: LPS-stimulated RAW264.7; 1, 5, 10 and 20 μM
# Sequence of IKKα (Q60680 whole entry): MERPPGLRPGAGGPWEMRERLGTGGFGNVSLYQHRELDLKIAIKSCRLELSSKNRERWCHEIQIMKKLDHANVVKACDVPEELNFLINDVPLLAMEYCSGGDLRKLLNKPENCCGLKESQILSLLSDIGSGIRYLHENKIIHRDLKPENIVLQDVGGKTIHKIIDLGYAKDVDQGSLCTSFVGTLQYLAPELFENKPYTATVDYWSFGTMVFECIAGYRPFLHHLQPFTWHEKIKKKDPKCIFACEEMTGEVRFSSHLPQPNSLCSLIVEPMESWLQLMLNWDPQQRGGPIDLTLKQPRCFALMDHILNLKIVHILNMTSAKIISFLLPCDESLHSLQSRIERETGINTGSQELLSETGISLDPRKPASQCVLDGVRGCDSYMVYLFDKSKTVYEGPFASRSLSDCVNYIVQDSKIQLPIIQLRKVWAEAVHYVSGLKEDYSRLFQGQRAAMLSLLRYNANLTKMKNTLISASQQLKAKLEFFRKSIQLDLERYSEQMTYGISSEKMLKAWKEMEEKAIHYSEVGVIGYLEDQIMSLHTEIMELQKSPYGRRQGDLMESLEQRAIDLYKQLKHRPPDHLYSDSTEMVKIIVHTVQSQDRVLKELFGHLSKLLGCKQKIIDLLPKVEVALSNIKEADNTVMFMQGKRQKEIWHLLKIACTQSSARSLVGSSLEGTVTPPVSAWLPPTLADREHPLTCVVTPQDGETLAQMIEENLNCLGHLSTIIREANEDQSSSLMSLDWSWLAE
# Description: (§1) Cells were treated with 1, 5, 10 and 20 μM of NPI-1387 for 1 hour and then stimulated with 10 ng/ml LPS for 10 or 30 min. To determine the phosphorylation of IRAK1, whole cell extracts were prepared in RIPA buffer [0.9% NaCl, 50 mM Tris-HCl (pH7.4), 1% Triton X-100, 1 mM EDTA, 0.25% Na-deoxycholic acid, 0.1% SDS, 1 mM Na3VO4, 1 mM NaF and protease inhibitors]. […] Following electro-transfer, the membranes were blocked in Blotto (5%, w/v) non-fat milk in 1×TBST [20 mM Tris, 0.8% (w/v) NaCl, pH 7.6, 0.1% (v/v) Tween 20]. Membranes were then incubated with primary antibodies against IRAK1 (Santa Cruz Biotechnology), total IκBα (Cell Signaling Technology), phospho-IκBα (Cell Signaling Technology) and Tubulin (Lab Vision) in Blotto for 2 hours. The membranes were washed in TBST and (where necessary) incubated with the HRP-conjugated secondary antibody in Blotto for 1 hour before washing extensively with TBST. HRP activity was visualized by utilizing either SuperSignal West Pico or Dura chemiluminescent detection systems (Pierce Biotechnology). […] The protein samples were separated by 10% NuPAGE MES precast gels (Invitrogen) and the extent of GST-IκBα phosphorylation was evaluated by western blotting using the antibody against phospho-IκBα (Cell Signaling Technology).
# IRAK1 = type: cell-based; settings: LPS-stimulated RAW264.7; 1, 5, 10 and 20 μM
# Description: as §1
# MM cells = experiment: MM cell death after 48 hours on co-administration with other drugs; type: cell-based
# Description: In Vitro assays measuring the percentage of MM cell death after 48 hours were carried out with bortezomib and dexamethasone, each in concert with NPI-1387. […] (See FIGS. 70 and 71).
smiles,measurement,setting,value
"C=CC(=O)C1(C)CCCC2(C)C3=CCC(C)(C=C)C[C@@H]3CC[C@H]12 (stereo in doubt) [NPI-1387, 1-[(1S,4aS,7R)-1,4a,7-Trimethyl-7-vinyl-1,2,3,4,4a,6,7,8,8a,9,10,10a-dodecahydro-1-phenanthrenyl]-2-propen-1-one]",IC50,PC3 (Prostate),10 ± 2 µM
same,IC50,"PC3 (Prostate); Homo sapiens, 48 h",11 ± 2 µM
same,kinase activity of IKKα,IKKα,reduces kinase activity of IKKα in a dose-dependent manner
same,phosphorylation of IRAK1 (and its downstream target IκBα),IRAK1,inhibits the phosphorylation of IRAK1
same,"percentage of MM cell death, co-administration with bortezomib",MM cells,additive effects in increasing the percentage of MM cell death
same,"percentage of MM cell death, co-administration with dexamethasone",MM cells,additive effects in increasing the percentage of MM cell death
